By EC50 is commonly meant the concentration that produces a half-maximal response. Usually IC50 stands for the concentration at which inhibition is half-maximal. Read a high IC50 as weaker potency in that assay.

For 19 compounds, EC50 and IC50 results are on record in patent US20230312587A1, “PTERIDINONE COMPOUNDS AND USES THEREOF” (Vertex Pharmaceutical Incorporated, priority 2018, published 2023).

Bounds are passed on as bounds.

In one experiment the test system is Colo-205 cells. Put plainly: Calcium flux assay (FLIPR Calcium 5). In kind it is cell-based. The note with it: Homo sapiens, COLO 205, 0.6 h, FLIPR Calcium 5, measured over 36 minutes. Here is the method: Compounds described herein induced ER stress by causing intracellular calcium flux. Calcium flux was measured in Colo-205 cells using the FLTPR® Calcium 5 Assay Kit according to manufacter's protocol (Molecular Devices, Cat. #R8186) on a FLIPR3 system (Molecular Devices). Calcium flux is measured over 36 minutes. The Colo-205 calcium flux assay data are summarized in Table 47: A<0.6 μM; 0.6 μM≤B<2.0 μM; 2.0 μM≤C<10.0 μM; D≥10.0 μM.

Another experiment relates to HepG2 XBP1(u)-Luc cells. As to the kind of experiment: HepG2 XBP1 reporter assay. In kind it is cell-based. The note with it: Homo sapiens, 6 h. In a few lines: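 Reporter cells are HepG2 stably carrying unspliced XBP1 fused to firefly luciferase, which becomes in-frame after IRE1alpha-mediated splicing. SteadyGlo luminescence was normalized to DMSO-treated cells for IC50 calculation.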
On the technique in general: Reporter assays use an easily measured gene product as a stand-in for the process of interest.

Regarding `CCOc1ccc(CCn2cc(CNc3ncc4c(n3)N(C)[C@@H](C)C(=O)N4)cn2)cc1` [Compound 121, (7S)-2-(((1-(4-ethoxyphenethyl)-1H-pyrazol-4-yl)methyl)amino)-7,8-dimethyl-7,8-dihydropteridin-6(5H)-one], the EC50 in the experiment on Colo-205 cells was in the range of 600 to 2000 nM. Moreover, the IC50 in the experiment on HepG2 XBP1(u)-Luc cells lay in the range of 2000 to 10000 nM.

With `Cc1nc(NCc2cnn(C3CCN(C(=O)c4ccc(F)cc4)CC3)c2)nc2c1NC(=O)[C@H](C)N2C` [Compound 125, (7S)-2-(((1-(1-(4-Fluorobenzoyl)piperidin-4-yl)-1H-pyrazol-4-yl)methyl)amino)-4,7,8-trimethyl-7,8-dihydropteridin-6(5H)-one], the EC50 with Colo-205 cells is 2000 to 10000 nM. Moreover, the IC50 with HepG2 XBP1(u)-Luc cells is no less than 10000 nM.

Consider `Cc1nc(NCc2cnn(CC(C)(O)c3ccc(F)cc3)c2)nc2c1NC(=O)[C@H](C)N2C` (stereo partly drawn) [Compound 128, (7S)-2-(((1-(2-(4-fluorophenyl)-2-hydroxypropyl)-1H-pyrazol-4-yl)methyl)amino)-4,7,8-trimethyl-7,8-dihydropteridin-6(5H)-one], for which, in the experiment with Colo-205 cells, the EC50 was in the range of 2000 to 10000 nM. In addition, in the experiment on HepG2 XBP1(u)-Luc cells, the IC50 was in the range of 2000 to 10000 nM.

Regarding `Cc1nn(C)cc1Cn1cc(CNc2nc(C)c3c(n2)N(C)[C@@H](C)C(=O)N3)cn1` [Compound 139, (7S)-2-(((1-((1,3-dimethyl-1H-pyrazol-4-yl)methyl)-1H-pyrazol-4-yl)methyl)amino)-4,7,8-trimethyl-7,8-dihydropteridin-6(5H)-one], the EC50 with Colo-205 cells lay within 2000 to 10000 nM. This compound returned an IC50 in the experiment on HepG2 XBP1(u)-Luc cells of no less than 10000 nM.

For `Cc1nc(NCc2cnn([C@H]3CCN(C4CCC(F)(F)CC4)C3)c2)nc2c1NC(=O)[C@H](C)N2C` [Compound 142, (7S)-2-(((1-((S)-1-(4,4-difluorocyclohexyl)pyrrolidin-3-yl)-1H-pyrazol-4-yl)methyl)amino)-4,7,8-trimethyl-7,8-dihydropteridin-6(5H)-one], the EC50 in the experiment on Colo-205 cells was 600 to 2000 nM. Besides, the IC50 in the experiment with HepG2 XBP1(u)-Luc cells was in the range of 600 to 2000 nM.

For `Cc1nc(NCc2ccc(-n3cc(C(F)(F)F)cn3)nc2)nc2c1NC(=O)[C@H](C)N2C` [Compound 143, (S)-4,7,8-trimethyl-2-(((6-(4-(trifluoromethyl)-1H-pyrazol-1-yl)pyridin-3-yl)methyl)amino)-7,8-dihydropteridin-6(5H)-one], the EC50 in the experiment on Colo-205 cells lay in the range of 2000 to 10000 nM. For the same compound, in the experiment with HepG2 XBP1(u)-Luc cells, the IC50 was in the range of 2000 to 10000 nM.

As to `Cc1ncc(Cn2cc(CNc3nc(C)c4c(n3)N(C)[C@@H](C)C(=O)N4)cn2)cn1` [Compound 163, (7S)-4,7,8-trimethyl-2-(((1-((2-methylpyrimidin-5-yl)methyl)-1H-pyrazol-4-yl)methyl)amino)-7,8-dihydropteridin-6(5H)-one], in the experiment on Colo-205 cells, the concentration giving a half-maximal response (EC50) was in the range of 2000 to 10000 nM. This compound also came in with an IC50 in the experiment with HepG2 XBP1(u)-Luc cells of no less than 10000 nM.

As for `Cc1cnc(C(F)(F)F)nc1-n1cc(CNc2ncc3c(n2)N(C)[C@@H](C)C(=O)N3)cn1` [Compound 164, (7S)-7,8-dimethyl-2-(((1-(5-methyl-2-(trifluoromethyl)pyrimidin-4-yl)-1H-pyrazol-4-yl)methyl)amino)-7,8-dihydropteridin-6(5H)-one], in the experiment on Colo-205 cells, the EC50 was in the range of 2000 to 10000 nM. Moreover, in the experiment on HepG2 XBP1(u)-Luc cells, the IC50 was 2000 to 10000 nM.

As for `Cc1nc(NCc2cnn([C@@H]3CCN(c4ccc(F)cc4)C3)c2)nc2c1NC(=O)[C@H](C)N2C` [Compound 170, (7S)-2-(((1-((R)-1-(4-fluorophenyl)pyrrolidin-3-yl)-1H-pyrazol-4-yl)methyl)amino)-4,7,8-trimethyl-7,8-dihydropteridin-6(5H)-one], the EC50 with Colo-205 cells is less than 600 nM. The IC50 in the experiment on HepG2 XBP1(u)-Luc cells was less than 600 nM.

Turning to `Cc1ccc(Cn2cc(CNc3nc(C)c4c(n3)N(C)[C@@H](C)C(=O)N4)cn2)cn1` [Compound 173, (7S)-4,7,8-trimethyl-2-(((1-((6-methylpyridin-3-yl)methyl)-1H-pyrazol-4-yl)methyl)amino)-7,8-dihydropteridin-6(5H)-one], the EC50 with Colo-205 cells is 2000 to 10000 nM. In the experiment on HepG2 XBP1(u)-Luc cells, this compound had an IC50 of 2000 to 10000 nM.

Take `Cc1nc(NCc2cnn(Cc3ccc(F)cc3)c2)nc2c1NC(=O)C1(CC1)N2` [Compound 222, 2′-(((1-(4-fluorobenzyl)-1H-pyrazol-4-yl)methyl)amino)-4′-methyl-5′,8′-dihydro-6′H-spiro[cyclopropane-1,7′-pteridin]-6′-one]: the EC50 in the experiment with Colo-205 cells is 2000 to 10000 nM. Also, the IC50 in the experiment with HepG2 XBP1(u)-Luc cells was no less than 10000 nM.

As for `CN1C(=O)C(C)(C)N(C)c2nc(NCc3cnn(Cc4cccnc4C(F)(F)F)c3)ncc21` [Compound 237, 5,7,7,8-Tetramethyl-2-(((1-((2-(trifluoromethyl)pyridin-3-yl)methyl)-1H-pyrazol-4-yl)methyl)amino)-7,8-dihydropteridin-6(5H)-one], in the experiment on Colo-205 cells, the EC50 fell in the range of 600 to 2000 nM. In the experiment on HepG2 XBP1(u)-Luc cells, this compound came in with an IC50 of 600 to 2000 nM.

As to `Cc1nc(N[C@H]2C[C@@H](Oc3cc(F)c(F)c(F)c3)C2)nc2c1NC(=O)[C@H](C)N2C` [Compound 247, (7S)-4,7,8-trimethyl-2-((cis-3-(3,4,5-trifluorophenoxy)cyclobutyl)amino)-7,8-dihydropteridin-6(5H)-one], the EC50 in the experiment with Colo-205 cells was 2000 to 10000 nM. Also, the IC50 with HepG2 XBP1(u)-Luc cells was no less than 10000 nM.

For the compound `Cc1nc(N[C@H]2C[C@@H](Sc3ccc(F)cc3)C2)nc2c1N(C)C(=O)[C@H](C)N2C` [Compound 305, (7S)-2-((cis-3-((4-fluorophenyl)thio)cyclobutyl)amino)-4,5,7,8-tetramethyl-7,8-dihydropteridin-6(5H)-one], the EC50 in the experiment with Colo-205 cells was in the range of 600 to 2000 nM. The IC50 with HepG2 XBP1(u)-Luc cells is 2000 to 10000 nM.

Consider `Cc1nc(N[C@H]2C[C@H](Sc3ccc(F)cc3)C2)nc2c1N(C)C(=O)[C@H](C)N2C` [Compound 307, (7S)-2-((trans-3-((4-fluorophenyl)thio)cyclobutyl)amino)-4,5,7,8-tetramethyl-7,8-dihydropteridin-6(5H)-one], for which the EC50 with Colo-205 cells lay within 600 to 2000 nM. Moreover, the IC50 in the experiment with HepG2 XBP1(u)-Luc cells is 600 to 2000 nM.

Regarding `Cc1nc(N[C@H]2C[C@H](Sc3cc(F)c(F)c(F)c3)C2)nc2c1NC(=O)[C@H](C)N2C` [Compound 329, (7S)-4,7,8-trimethyl-2-((trans-3-((3,4,5-trifluorophenyl)thio)-cyclobutyl)amino)-7,8-dihydropteridin-6(5H)-one], the EC50 in the experiment on Colo-205 cells was 600 to 2000 nM. Moreover, in the experiment with HepG2 XBP1(u)-Luc cells, the IC50 is less than 600 nM.

With `Cc1nc(N[C@H]2C[C@@H](COc3ccc(C(F)(F)F)cn3)C2)nc2c1NC(=O)[C@H](C)N2C` [Compound 356, (7S)-4,7,8-trimethyl-2-((cis-3-(((5-(trifluoromethyl)pyridin-2-yl)oxy)methyl)cyclobutyl)amino)-7,8-dihydropteridin-6(5H)-one], the EC50 with Colo-205 cells lay within 600 to 2000 nM. This compound also had an IC50 with HepG2 XBP1(u)-Luc cells of less than 600 nM.

Regarding `Cc1nc(N[C@H]2C[C@H](Oc3ccc(F)nc3)C2)nc2c1NC(=O)[C@H](C)N2C` [Compound 357, (7S)-2-((trans-3-((6-fluoropyridin-3-yl)oxy)cyclobutyl)amino)-4,7,8-trimethyl-7,8-dihydropteridin-6(5H)-one], the EC50 in the experiment on Colo-205 cells fell in the range of 600 to 2000 nM. In addition, in the experiment on HepG2 XBP1(u)-Luc cells, the IC50 was 2000 to 10000 nM.

Consider `Cc1nc(N(C)Cc2cnn(Cc3ccc(C(F)(F)F)nc3)c2)nc2c1NC(=O)[C@H](C)N2C` [Compound 403, (7S)-4,7,8-trimethyl-2-(methyl((1-((6-(trifluoromethyl)pyridin-3-yl)methyl)-1H-pyrazol-4-yl)methyl)amino)-7,8-dihydropteridin-6(5H)-one], for which the EC50 in the experiment on Colo-205 cells was no less than 10000 nM. In the experiment with HepG2 XBP1(u)-Luc cells, this compound showed an IC50 of no less than 10000 nM.
